From patent US9040547B2, “Pyrrolopyrimidine and purine derivatives” (PFIZER INC., priority 2011, dated 2015)

Tests used:
Assay type in all cases: cell-based
EGFR L858R, endogenous = target: T1, EGFR L858R, endogenous (Homo sapiens, UniProt P00533, L858R); assay: pEGFR Y1068 ELISA assay, NCI-H3255 cells; settings: value marked (H3255): NCI-H3255 cells, 2 hrs compound treatment; read-out: pEGFRY1068 ELISA3T3 L858R IC50 (nM), (H3255)
T1 construct: NCI-H3255 (EGFR L858R, endogenous); endogenous in cells; host or cells: NCI-H3255
T1 sequence (P00533 25-1210 L858R): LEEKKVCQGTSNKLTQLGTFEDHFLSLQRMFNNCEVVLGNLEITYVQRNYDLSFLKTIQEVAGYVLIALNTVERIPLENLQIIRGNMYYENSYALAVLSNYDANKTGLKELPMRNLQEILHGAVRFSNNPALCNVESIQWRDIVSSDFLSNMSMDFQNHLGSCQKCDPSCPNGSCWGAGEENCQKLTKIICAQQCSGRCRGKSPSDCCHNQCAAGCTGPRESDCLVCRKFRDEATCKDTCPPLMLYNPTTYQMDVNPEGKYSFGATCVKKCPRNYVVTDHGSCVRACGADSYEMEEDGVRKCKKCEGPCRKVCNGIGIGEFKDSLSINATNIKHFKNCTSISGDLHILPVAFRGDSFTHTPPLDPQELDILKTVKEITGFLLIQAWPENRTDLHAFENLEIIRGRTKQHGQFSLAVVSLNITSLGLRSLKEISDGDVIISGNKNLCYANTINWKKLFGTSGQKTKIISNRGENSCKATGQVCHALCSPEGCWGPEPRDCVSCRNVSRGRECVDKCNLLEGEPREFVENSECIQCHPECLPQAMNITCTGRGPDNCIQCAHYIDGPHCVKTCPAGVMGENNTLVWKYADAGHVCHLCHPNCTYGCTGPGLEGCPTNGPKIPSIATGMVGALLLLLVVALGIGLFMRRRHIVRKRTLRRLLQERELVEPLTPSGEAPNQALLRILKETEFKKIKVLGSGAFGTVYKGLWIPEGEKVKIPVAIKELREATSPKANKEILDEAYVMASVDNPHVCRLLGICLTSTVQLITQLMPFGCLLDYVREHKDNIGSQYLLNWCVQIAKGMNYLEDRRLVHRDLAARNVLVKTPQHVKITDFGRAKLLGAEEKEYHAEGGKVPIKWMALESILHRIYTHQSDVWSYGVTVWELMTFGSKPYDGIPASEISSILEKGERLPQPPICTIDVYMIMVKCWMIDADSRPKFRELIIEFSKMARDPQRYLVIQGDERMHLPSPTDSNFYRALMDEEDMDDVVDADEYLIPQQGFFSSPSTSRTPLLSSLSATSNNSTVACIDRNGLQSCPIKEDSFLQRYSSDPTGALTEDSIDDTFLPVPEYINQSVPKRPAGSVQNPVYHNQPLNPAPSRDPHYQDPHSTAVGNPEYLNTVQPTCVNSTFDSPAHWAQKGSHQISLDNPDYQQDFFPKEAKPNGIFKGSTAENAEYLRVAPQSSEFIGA

EGFR Del (PC9) = target: T2, EGFR Del (PC9) (Homo sapiens, UniProt P00533, DEL746-750); assay: EGFR ELISA, PC9 Del cells; settings: read-out: EGFR_ELISA9E PC9 Del IC50;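 note: cellular EGFR autophosphorylation at Tyr1068 quantified by sandwich ELISA of cell lysates after 2 h compound exposure at 37 °C, 11-point threefold dilution series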
T2 construct: endogenous in cells; host or cells: PC-9
T2 sequence (P00533 with tags, fused parts or gaps DEL746-750): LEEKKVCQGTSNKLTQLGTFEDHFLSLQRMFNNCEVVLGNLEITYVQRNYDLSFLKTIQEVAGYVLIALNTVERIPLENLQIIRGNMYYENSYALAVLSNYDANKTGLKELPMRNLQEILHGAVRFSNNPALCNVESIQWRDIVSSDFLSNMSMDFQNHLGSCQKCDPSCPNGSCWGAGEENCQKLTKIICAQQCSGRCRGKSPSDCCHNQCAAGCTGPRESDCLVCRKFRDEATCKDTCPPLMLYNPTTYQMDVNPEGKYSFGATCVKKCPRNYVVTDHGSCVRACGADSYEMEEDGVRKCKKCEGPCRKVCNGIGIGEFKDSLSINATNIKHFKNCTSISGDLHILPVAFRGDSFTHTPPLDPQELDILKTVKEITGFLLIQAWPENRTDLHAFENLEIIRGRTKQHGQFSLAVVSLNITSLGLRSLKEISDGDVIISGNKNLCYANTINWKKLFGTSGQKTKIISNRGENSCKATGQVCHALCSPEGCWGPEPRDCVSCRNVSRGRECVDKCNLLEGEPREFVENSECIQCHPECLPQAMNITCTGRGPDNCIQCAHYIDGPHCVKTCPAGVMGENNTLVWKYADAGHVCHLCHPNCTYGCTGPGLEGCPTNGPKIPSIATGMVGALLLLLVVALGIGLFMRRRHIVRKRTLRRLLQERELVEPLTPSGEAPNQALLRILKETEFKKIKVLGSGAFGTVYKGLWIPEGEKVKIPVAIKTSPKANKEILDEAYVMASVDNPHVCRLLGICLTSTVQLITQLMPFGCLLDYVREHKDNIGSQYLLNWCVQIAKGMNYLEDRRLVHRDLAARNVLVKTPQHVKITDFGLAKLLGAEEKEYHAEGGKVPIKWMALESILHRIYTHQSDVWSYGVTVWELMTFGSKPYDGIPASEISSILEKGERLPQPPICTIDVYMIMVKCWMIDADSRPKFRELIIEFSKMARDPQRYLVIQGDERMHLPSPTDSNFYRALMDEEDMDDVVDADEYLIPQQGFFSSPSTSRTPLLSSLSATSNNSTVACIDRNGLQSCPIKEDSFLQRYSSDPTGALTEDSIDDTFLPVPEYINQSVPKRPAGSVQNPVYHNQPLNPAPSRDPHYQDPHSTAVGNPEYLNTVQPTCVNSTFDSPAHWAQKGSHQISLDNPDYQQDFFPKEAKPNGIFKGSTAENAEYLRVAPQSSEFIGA

[1] = target: T3, EGFR wildtype, endogenous (Homo sapiens, UniProt P00533); assay: pEGFR Y1068 ELISA assay, A549 cells; settings: full serum media, stimulated 10 min with EGF (40 ng/mL), read-out: pEGFRY1068 ELISAA549 IC50;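 note: sandwich ELISA of phospho-EGFR Tyr1068 in cell lysates, cells exposed to compound for 2 h before EGF stimulation, 11-point threefold dilution series run in duplicate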
T3 construct: A549 (EGFR wildtype, endogenous); host or cells: A549

[2] = target: T4, EGFR L858R+T790M, endogenous (Homo sapiens, UniProt P00533, L858R/T790M); assay: pEGFR Y1068 ELISA assay, NCI-H1975 cells; settings: value marked (H1975): NCI-H1975 cells, 2 hrs compound treatment; read-out: pEGFRY1068 ELISA3T3T790M—L858R IC50 (nM), (H1975);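 note: sandwich ELISA of endogenous phospho-EGFR (Tyr1068) in lysates of treated cells, 11-point 1:3 serial dilution tested in duplicate per plate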
T4 construct: NCI-H1975 (EGFR L858R+T790M, endogenous); host or cells: NCI-H1975

EGFR E746-A750 deletion = EGFR E746-A750 deletion (Homo sapiens, UniProt P00533, DEL746-750); assay: pEGFR Y1068 ELISA assay, NIH3T3/EGFR_E746-A750 deletion cells; settings: 3T3 Del cells, 2 hrs compound treatment; read-out: ELISA7E 3T3 Del IC50;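 note: sandwich ELISA on cell lysates detecting phospho-EGFR at Tyr1068, compounds run as 11-point threefold dilution series in duplicate, IC50 from inhibition of this phosphorylation signal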
Chain of EGFR E746-A750 deletion (P00533 with tags, fused parts or gaps DEL746-750): as above

NIH3T3/EGFR L858R+T790M = assay: Cell proliferation assay (CellTiter-Glo), NIH3T3/EGFR L858R+T790M; settings: Mus musculus, NIH3T3, 120 h, 3T3 cell line, three to five days of compound treatment, read-out: 3T3 L858R_T790M IC50
EGFR L858R = EGFR L858R (Homo sapiens, UniProt P00533, L858R); assay: pEGFR Y1068 ELISA assay, NIH3T3/EGFR_L858R cells; settings: 3T3 cell line, 2 hrs compound treatment; read-out: pEGFRY1068 ELISA3T3 L858R IC50;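 note: sandwich ELISA of phospho-EGFR Tyr1068 in lysates of stably transfected NIH/3T3 pools after 2 h compound exposure at 37 °C, 11-point threefold dilution series run in duplicate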
Chain of EGFR L858R (P00533 25-1210 L858R): as the sequence (P00533 25-1210 L858R) above

[3] = system: NIH3T3/EGFR_E746-A750_deletion+T790M; assay: Cell proliferation assay (CellTiter-Glo), NIH3T3/EGFR_E746-A750_deletion+T790M; settings: Mus musculus, NIH3T3, 120 h, 3T3 cell line, three to five days of compound treatment, read-out: 3T3 del_T790M IC50
Protocol: (§1) Cell proliferation was measured using the CellTiter-Glo® Luminescent Cell Viability Assay. The assay involves the addition of a single reagent (CellTiter-Glo® Reagent) directly to cells cultured in serum-supplemented medium. The assay uses this one-step addition to induce cell lysis and generate a luminescent signal proportional to the amount of ATP present which is directly proportional to the number of metabolically active cells present in culture. The following cell lines were evaluated in this assay: NIH3T3/EGFR_L858R, NIH3T3/EGFR_E746-A750_deletion, NIH3T3/EGFR L858R+T790M, NIH3T3/EGFR_E746-A750_deletion+T790M, PC-9, PC9-DRH, NCI-H1975, and NCI-H3255. NIH/3T3 parental cells, NCI-H1975, and NCI-H3255 were purchased from the American Type Culture Collection (Manassas, Va.), and PC-9 cells were obtained from Japan. All cells were cultured according to recommendations. NIH/3T3 cells were grown in DMEM (Invitrogen, Carlsbad, Calif.) supplemented with 10% newborn calf serum (Invitrogen), and NIH3T3/EGFR mutant cells were grown in complete media with 5 μg/mL puromycin (Invitrogen). PC-9, NCI-H1975, and NCI-H3255 were grown in RPMI (Invitrogen, Carlsbad, Calif.) supplemented with 10% FBS (Sigma, St Louis, Mo.), and PC9-DRH cells were grown in complete media with 2 uM PF-00299804. Plasmids (pLPCX) with various EGFR constructs were made by GenScript (Piscataway, N.J.), and stable pools of NIH/3T3 cells expressing these constructs were made at Pfizer La Jolla. PC9-DRH cells were generated at Pfizer La Jolla by exposing cells to increasing concentrations of PF-00299804. Cells were plated in complete culture media (3000-5000 cells/well, 50 μl/well) on the bottom of white clear-bottom tissue culture treated microtiter plates (#3610, Corning Inc, Corning, N.Y.) and allowed to adhere overnight at 37° C., 5% CO2. The following day, compound dilution plates were prepared in 96 well clear V-bottom 0.5 mL polypropylene block plates (#3956, Corning, Inc). All cell lines were not evaluated for each compound. Each compound evaluated was prepared as a DMSO stock solution (10 mM). Compounds were tested in duplicate on each plate, with an 11-point serial dilution curve (1:3 dilution). Compound treatment (50 μl) was added from the compound dilution plate to the cell plate. The highest compound concentration was 1 or 10 μM (final), with a 0.3% final DMSO (#D-5879, Sigma, St Louis, Mo.) concentration. Plates were then incubated at 37° C., 5% CO2. After three to five days of compound treatment, CellTiter-Glo® Reagent (#G7573, Promega, Madison, Wis.) was prepared in one of two ways. If thawing a frozen aliquot of CellTiter-Glo® Reagent, the aliquot was thawed and equilibrated to room temperature prior to use while keeping it protected from light. Alternatively, new bottles of CellTiter-Glo® Buffer and CellTiter-Glo® Substrate were thawed and equilibrated to room temperature prior to use. CellTiter-Glo® Buffer (100 mL) was transferred into the amber bottle containing CellTiter-Glo® Substrate to reconstitute the lyophilized enzyme/substrate mixture, forming the CellTiter-Glo® Reagent. The reconstituted reagent was mixed by gently inverting the contents to obtain a homogeneous solution, and went into solution easily in less than one minute. Any unused reconstituted CellTiter-Glo® Reagent was immediately aliquoted and frozen at −20° C., protected from light. Cell plates were equilibrated at room temperature for approximately 30 minutes. An equivolume amount of CellTiter-Glo® Reagent (100 μL) was added to each well. Plates were mixed for two minutes on an orbital shaker to induce cell lysis, and then allowed to incubate at room temperature for 10 minutes to stabilize the luminescent signal. Luminescence was recorded using the PerkinElmer EnVision Excite Multilabel Reader used for endpoint reading for Luminescence detection (Waltham, Mass.). Data were analyzed using a four-parameter fit in Microsoft Excel. […]

[4] = system: NIH3T3/EGFR_E746-A750_deletion; assay: Cell proliferation assay (CellTiter-Glo), NIH3T3/EGFR_E746-A750_deletion; settings: Mus musculus, NIH3T3, 120 h, 3T3 cell line, three to five days of compound treatment, read-out: 3T3 del IC50
Protocol: as §1

NIH3T3/EGFR_L858R = assay: Cell proliferation assay (CellTiter-Glo), NIH3T3/EGFR_L858R; settings: Mus musculus, NIH3T3, 120 h, 3T3 cell line, three to five days of compound treatment, read-out: 3T3 L858R IC50
Protocol: as §1

EGFR L858R+T790M = EGFR L858R+T790M (Homo sapiens, UniProt P00533, L858R/T790M); assay: pEGFR Y1068 ELISA assay, NIH3T3/EGFR_L858R+T790M cells; settings: 3T3 cell line, 2 hrs compound treatment; read-out: pEGFRY1068 ELISA3T3T790M—L858R IC50;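 note: sandwich ELISA of EGFR phosphorylated at Tyr1068 in lysates of stably transfected NIH/3T3 cells, 11-point threefold dilution series run in duplicate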

Row | Structure (SMILES) | IC50 (EGFR L858R, endogenous) [nM] | IC50 (EGFR Del (PC9)) [nM] | IC50 [1] [µM] | IC50 [2] [nM] | IC50 (EGFR E746-A750 deletion) [nM] | IC50 (NIH3T3/EGFR L858R+T790M) [nM] | IC50 (EGFR L858R) [nM] | IC50 [3] [nM] | IC50 [4] [nM] | IC50 (NIH3T3/EGFR_L858R) [nM] | IC50 (EGFR L858R+T790M) [nM]
1 | C=CC(=O)N1C[C@H](COc2nc(Nc3cnn(CC(C)O)c3)nc3[nH]cc(Cl)c23)[C@@H](OC)C1 (single isomer, unassigned) [Example 100] | 101 | 4250 | > 10 | 153 |  |  |  |  |  |  | 
2 | C=CC(=O)Nc1cccc(Oc2nc(Nc3cc[nH]n3)nc3[nH]ccc23)c1 [Example 27] |  |  | > 10 | 146 | 56 |  |  |  |  |  | 
3 | C=CC(=O)N[C@@H]1CCCN(c2nc(Nc3cnn(C)c3)nc3[nH]cc(Cl)c23)C1 [Example 11, N-[(3R)-1-{5-chloro-2-[(1-methyl-1H-pyrazol-4-yl)amino]-7H-pyrrolo[2,3-d]pyrimidin-4-yl}piperidin-3-yl]prop-2-enamide] |  |  | > 10 | 525 |  | 100 to 1000 | 8860 | 100 to 1000 | > 1000 | > 1000 | 
4 | C=CC(=O)N1C[C@@H]2CN(c3nc(Nc4cnn(C)c4)nc4[nH]cc(Cl)c34)C[C@]2(OC)C1 (single isomer, unassigned) [Example 88] | 41 | 630 |  | 34 |  |  |  |  |  |  | 
5 | C=CC(=O)N(C)[C@H]1C[C@H](Oc2nc(Nc3cn(C)nc3C#N)nc3[nH]cc(Cl)c23)C1 [Example 80] | 273 | 891 | > 10 | 25 |  |  |  |  |  |  | 
6 | C=CC(=O)N1C[C@H](COc2nc(Nc3cn(CC#N)nc3C)nc3[nH]cc(Cl)c23)[C@@H](OC)C1 [Example 115] | 85 | 953 | > 10 | 73 |  |  |  |  |  |  | 
7 | C=CC(=O)N[C@H]1C[C@H](Oc2nc(Nc3cnn(C)c3)nc3[nH]cc(-c4ccccn4)c23)C1 [Example 12, N-[trans-3-({2-[(1-methyl-1H-pyrazol-4-yl)amino]-5-(pyridin-2-yl)-7H-pyrrolo[2,3-d]pyrimidin-4-yl}oxy)cyclobutyl]prop-2-enamide] | 782 | 2780 | > 10 | 689 |  |  |  |  |  |  | 
8 | C=CC(=O)N(C)[C@H]1C[C@H](Oc2nc(Nc3cnn(C)c3)nc3[nH]cc(-c4ccn(C)n4)c23)C1 [Example 86] | 477 | 2340 | > 10 | 266 |  |  |  |  |  |  | 
9 | C=CC(=O)N1C[C@@H]2CN(c3nc(Nc4cnn(C)c4)nc4[nH]cc(Cl)c34)C[C@]2(O)C1 [Example 84] | 1100 | 5240 |  | 175 |  |  |  |  |  |  | 
10 | C=CC(=O)N1C[C@H](Nc2nc(Nc3cnn(C)c3)nc3[nH]cc(Cl)c23)[C@H](n2ccnn2)C1 [Example 82] | 973 | > 10000 | > 10 | 638 |  |  |  |  |  |  | 
11 | C=CC(=O)N[C@H]1CC[C@@H](Oc2nc(Nc3cnn(C)c3)nc3[nH]cc(Cl)c23)C1 [Example 77] |  |  | > 10 | 301 |  | 100 to 1000 | 5190 | 100 to 1000 | > 1000 | > 1000 | 
12 | C=CC(=O)N(C)[C@@H]1CCCN(c2nc(Nc3cnn(C)c3)nc3[nH]cc(Cl)c23)C1 [Example 94] | 608 | 4430 |  | 385 |  |  |  |  |  |  | 
13 | C=CC(=O)N(C)[C@H]1C[C@H](Oc2nc(Nc3cnn(C)c3)nc3[nH]cc(Cl)c23)C1 [Example 108] |  | 352 | > 10 |  | 81 | 10 to 100 | 164 | < 10 | 10 to 100 | 100 to 1000 | 7
14 | C=CC(=O)N1C[C@H](COc2nc(Nc3cnn(CC#N)c3)nc3[nH]cc(Cl)c23)[C@@H](OC)C1 [Example 93] | 26 | 383 |  | 31 |  |  |  |  |  |  | 
15 | C=CC(=O)N1CCOC2(CCN(c3nc(Nc4cnn(C)c4)nc4[nH]cc(Cl)c34)C2)C1 (single isomer, unassigned) [Example 112] | 241 |  | > 10 | 63 |  |  |  |  |  |  | 
16 | C=CC(=O)Nc1cccc(Oc2nc(Nc3cnn(C)c3)nc3[nH]cc(C#N)c23)c1 [Example 57] |  | 44 | > 10 |  | 25 | 10 to 100 | 105 | 10 to 100 | < 10 | > 1000 | 67
